According to patent US20250221998A1, “DISCOVERY OF COVALENT EGFR INHIBITOR THROUGH CYSTEINE 775” (Dana-Farber Cancer Institute, Inc., priority 2022, published 2025):

Assays:
Assay type in all cases: cell-based, murine
[1] = molecular target: EGFR L858R/C775S Ba/F3 cells (Homo sapiens, UniProt P00533, C775S/L858R, cells depend on it); assay: Ba/F3 cell proliferation (Cell Titer Glo), EGFR L858R/C775S; details: 72 hours exposure, read-out: L858R/C775S (μM), inhibitory activity against EGFR mutants
Source text: The EGFR mutant L858R Ba/F3 cells have been previously described (Zhou, W., et al. Nature 462, 2009, 1070-1074). The EGFR C797S and C775S mutations were introduced via site directed mutagenesis using the Quick Change Site-Directed Mutagenesis kit into a vector containing EGFR L858R mutation (Stratagene; La Jolla, CA) according to the manufacturer's instructions. All constructs were confirmed by DNA sequencing. The constructs were then shuttled into the retroviral vector JP1540 by either using the Cre-recombination system (Agilent Technologies, Santa Clara, CA) or the In-fusion HD Cloning kit (Takara Bio USA, Inc.; Mountain view, CA). Ba/F3 cells were then infected with retrovirus per standard protocols, as described previously (Zhou, et al, Nature 2009). Stable clones were obtained by selection in puromycin (2 ug/ml). All BaF/3 mutant cells were maintained in RPMI 1640 (Cellgro; Mediatech Inc., Herndon, CA) supplemented with 10% FBS, 100 units/mL penicillin, 100 units/mL streptomycin.
Growth and inhibition of growth was assessed by the Cell Titer Glo assay (Promega, Madison, WI) and was performed according to the manufacturer's instructions. The Cell Titer Glo assay is a luminescence-based method used to determine the number of viable cells based on quantitation of the ATP present, which is directly proportional to the amount of metabolically active cells present. Ba/F3 cells of different EGFR genotypes were exposed to compounds for 72 hours and the number of cells used per experiment was determined empirically as has been previously established (Zhou, et al., Nature 2009). All experimental points were set up in triplicates in 384-well plates. […] The curves were fitted using a non-linear regression model with a sigmoidal dose response.
For inhibitory activity against EGFR mutants, the following designations are used: ≤0·25 μM=A, 0·25 μM˜0.5 μM=B, 0.5 μM˜2.5 μM=C, ≥2.5 μM=D.

[2] = molecular target: EGFR L858R/C797S Ba/F3 cells (Homo sapiens, UniProt P00533, C797S/L858R, cells depend on it); assay: Ba/F3 cell proliferation (Cell Titer Glo), EGFR L858R/C797S; details: 72 hours exposure, read-out: L858R/C797S (μM), inhibitory activity against EGFR mutants
Summary of the method: (§1)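 Ba/F3 cells stably expressing retrovirally transduced EGFR L858R, L858R/C797S or L858R/C775S, puromycin-selected. Compound exposure 72 hours in triplicate; viability by Cell Titer Glo ATP luminescence.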

[3] = molecular target: EGFR mutant L858R Ba/F3 cells (Homo sapiens, UniProt P00533, L858R, cells depend on it); assay: Ba/F3 cell proliferation (Cell Titer Glo), EGFR L858R; details: 72 hours exposure, read-out: L858R BaF3 (μM), inhibitory activity against EGFR mutants
Summary of the method: as §1

Sequence of EGFR L858R/C775S Ba/F3 cells (P00533 whole entry C775S/L858R, the tested form may be a part): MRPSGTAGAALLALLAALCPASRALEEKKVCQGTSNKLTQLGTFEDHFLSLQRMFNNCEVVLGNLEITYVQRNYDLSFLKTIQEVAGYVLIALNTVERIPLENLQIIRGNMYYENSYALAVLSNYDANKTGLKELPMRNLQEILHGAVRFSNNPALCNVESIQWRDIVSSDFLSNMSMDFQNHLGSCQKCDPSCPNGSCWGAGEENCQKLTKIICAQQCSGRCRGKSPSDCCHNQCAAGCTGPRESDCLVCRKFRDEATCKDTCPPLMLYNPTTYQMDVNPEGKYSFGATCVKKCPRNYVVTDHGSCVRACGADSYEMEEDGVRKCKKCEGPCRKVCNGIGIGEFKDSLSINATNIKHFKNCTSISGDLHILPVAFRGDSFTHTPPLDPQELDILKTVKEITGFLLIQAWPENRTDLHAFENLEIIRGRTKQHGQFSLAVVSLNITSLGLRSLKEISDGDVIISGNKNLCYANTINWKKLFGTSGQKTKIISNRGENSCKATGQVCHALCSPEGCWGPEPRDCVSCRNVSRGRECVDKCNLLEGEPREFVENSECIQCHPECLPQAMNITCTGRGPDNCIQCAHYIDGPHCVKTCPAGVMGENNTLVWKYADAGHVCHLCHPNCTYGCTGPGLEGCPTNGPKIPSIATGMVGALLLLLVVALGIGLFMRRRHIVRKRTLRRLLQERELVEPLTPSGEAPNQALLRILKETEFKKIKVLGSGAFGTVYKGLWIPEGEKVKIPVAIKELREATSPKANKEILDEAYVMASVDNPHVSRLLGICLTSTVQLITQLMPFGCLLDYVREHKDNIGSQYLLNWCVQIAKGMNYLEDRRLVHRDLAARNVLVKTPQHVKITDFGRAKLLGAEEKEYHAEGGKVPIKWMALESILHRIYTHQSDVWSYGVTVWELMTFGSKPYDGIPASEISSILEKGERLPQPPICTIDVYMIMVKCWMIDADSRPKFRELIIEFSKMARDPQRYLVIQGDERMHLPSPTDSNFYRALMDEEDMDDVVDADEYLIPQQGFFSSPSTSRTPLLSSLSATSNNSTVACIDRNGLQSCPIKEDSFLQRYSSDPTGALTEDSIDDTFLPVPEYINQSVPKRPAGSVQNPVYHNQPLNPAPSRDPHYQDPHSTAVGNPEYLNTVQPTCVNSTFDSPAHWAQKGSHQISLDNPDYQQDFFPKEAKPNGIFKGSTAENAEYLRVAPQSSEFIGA
Sequence of EGFR mutant L858R Ba/F3 cells (P00533 whole entry L858R): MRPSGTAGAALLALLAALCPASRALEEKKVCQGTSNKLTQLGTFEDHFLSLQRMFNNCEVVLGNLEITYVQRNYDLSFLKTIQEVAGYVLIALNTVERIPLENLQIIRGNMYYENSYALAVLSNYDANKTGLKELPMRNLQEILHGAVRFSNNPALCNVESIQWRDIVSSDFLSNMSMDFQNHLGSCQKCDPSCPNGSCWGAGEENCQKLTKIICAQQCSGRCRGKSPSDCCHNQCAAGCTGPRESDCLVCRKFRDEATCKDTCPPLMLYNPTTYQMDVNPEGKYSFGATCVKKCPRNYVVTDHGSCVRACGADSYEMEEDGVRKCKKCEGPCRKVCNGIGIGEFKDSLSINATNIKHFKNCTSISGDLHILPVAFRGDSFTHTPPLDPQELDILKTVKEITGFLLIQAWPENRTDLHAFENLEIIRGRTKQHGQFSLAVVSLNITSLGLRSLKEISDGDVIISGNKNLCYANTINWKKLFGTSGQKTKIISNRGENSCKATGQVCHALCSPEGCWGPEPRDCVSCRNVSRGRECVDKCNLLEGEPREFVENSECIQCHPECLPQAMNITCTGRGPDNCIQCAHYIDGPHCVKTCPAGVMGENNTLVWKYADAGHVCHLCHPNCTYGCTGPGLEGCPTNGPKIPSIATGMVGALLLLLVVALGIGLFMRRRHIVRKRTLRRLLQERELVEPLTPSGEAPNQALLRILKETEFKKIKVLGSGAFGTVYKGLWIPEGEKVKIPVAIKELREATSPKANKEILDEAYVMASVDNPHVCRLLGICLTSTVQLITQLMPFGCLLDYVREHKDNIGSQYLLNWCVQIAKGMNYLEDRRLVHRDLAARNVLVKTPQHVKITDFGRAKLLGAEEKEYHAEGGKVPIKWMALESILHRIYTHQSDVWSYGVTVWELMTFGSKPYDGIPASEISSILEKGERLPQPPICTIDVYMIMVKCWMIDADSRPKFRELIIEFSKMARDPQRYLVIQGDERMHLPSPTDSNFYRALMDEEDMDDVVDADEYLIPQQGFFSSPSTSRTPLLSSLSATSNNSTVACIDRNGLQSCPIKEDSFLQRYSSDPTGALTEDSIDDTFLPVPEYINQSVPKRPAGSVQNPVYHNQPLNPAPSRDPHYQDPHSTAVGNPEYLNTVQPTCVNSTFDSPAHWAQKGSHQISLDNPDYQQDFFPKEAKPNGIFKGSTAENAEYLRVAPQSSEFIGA
Sequence of EGFR L858R/C797S Ba/F3 cells (P00533 whole entry C797S/L858R): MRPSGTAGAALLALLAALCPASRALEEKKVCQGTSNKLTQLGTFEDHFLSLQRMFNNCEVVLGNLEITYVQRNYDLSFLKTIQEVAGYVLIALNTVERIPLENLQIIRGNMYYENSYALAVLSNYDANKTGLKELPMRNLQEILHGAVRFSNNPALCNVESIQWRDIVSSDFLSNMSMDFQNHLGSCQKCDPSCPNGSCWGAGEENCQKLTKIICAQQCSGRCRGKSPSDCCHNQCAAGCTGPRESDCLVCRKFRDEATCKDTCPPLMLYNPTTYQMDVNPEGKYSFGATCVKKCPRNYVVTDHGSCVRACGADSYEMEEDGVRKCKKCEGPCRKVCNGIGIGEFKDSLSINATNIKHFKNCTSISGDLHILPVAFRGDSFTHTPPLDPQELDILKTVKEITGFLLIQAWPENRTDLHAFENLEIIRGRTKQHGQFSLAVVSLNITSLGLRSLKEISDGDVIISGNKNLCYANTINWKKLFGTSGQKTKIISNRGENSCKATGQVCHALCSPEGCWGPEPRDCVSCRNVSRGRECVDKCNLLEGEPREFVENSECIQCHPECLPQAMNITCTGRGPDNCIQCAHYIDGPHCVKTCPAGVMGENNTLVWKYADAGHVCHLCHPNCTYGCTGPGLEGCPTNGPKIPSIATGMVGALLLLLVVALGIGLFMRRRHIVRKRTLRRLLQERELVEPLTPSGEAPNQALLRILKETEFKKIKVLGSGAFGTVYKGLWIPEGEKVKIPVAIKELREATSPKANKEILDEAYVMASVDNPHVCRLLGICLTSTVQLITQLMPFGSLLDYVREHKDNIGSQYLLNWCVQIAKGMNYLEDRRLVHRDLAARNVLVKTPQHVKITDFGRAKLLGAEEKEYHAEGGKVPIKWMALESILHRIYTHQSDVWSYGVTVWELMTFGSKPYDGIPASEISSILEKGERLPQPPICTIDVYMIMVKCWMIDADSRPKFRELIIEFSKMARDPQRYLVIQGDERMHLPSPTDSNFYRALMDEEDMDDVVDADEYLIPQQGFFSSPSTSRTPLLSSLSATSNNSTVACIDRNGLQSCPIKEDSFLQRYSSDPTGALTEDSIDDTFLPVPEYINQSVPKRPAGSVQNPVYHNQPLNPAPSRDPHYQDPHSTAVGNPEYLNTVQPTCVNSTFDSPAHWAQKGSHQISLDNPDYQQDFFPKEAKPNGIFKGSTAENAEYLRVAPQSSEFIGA

Row | SMILES | GI50 [1] [µM] | GI50 [2] [µM] | GI50 [3] [µM]
1 | C=CC(=O)Nc1ccccc1Oc1cc2cnc(Nc3ccc(N4CCN(C)CC4)cc3)nc2n(C2CCCN(C(C)=O)C2)c1=O (stereo not drawn) [Compound 007, N-[2-[8-(1-acetyl-3-piperidyl)-2-[4-(4-methylpiperazin-1-yl)anilino]-7-oxo-pyrido[2,3-d]pyrimidin-6-yl]oxyphenyl]prop-2-enamide] | ≥ 2.5 | ≥ 2.5 | 0.25 to 0.5
2 | C=CC(=O)Nc1ccccc1Oc1cc2cnc(Nc3ccc(N4CCN(C)CC4)cc3)nc2n(-c2cccc(NC(C)=O)c2)c1=O [Compound 008] | ≥ 2.5 | ≥ 2.5 | 0.5 to 2.5
3 | C=CC(=O)N1CCN(c2cc3cnc(Nc4ccc(N5CCN(C)CC5)cc4)nc3n(C)c2=O)CC1 [Compound 009, 8-methyl-2-[4-(4-methylpiperazin-1-yl)anilino]-6-(4-prop-2-enoylpiperazin-1-yl)pyrido[2,3-d]pyrimidin-7-one] | ≥ 2.5 | ≥ 2.5 | ≥ 2.5
4 | C=CC(=O)N1CCN(c2cc3cnc(Nc4ccc(N5CCN(C)CC5)cc4)nc3n(C)c2=O)c2ccccc21 [Compound 010, 8-methyl-2-[4-(4-methylpiperazin-1-yl)anilino]-6-(4-prop-2-enoyl-2,3-dihydroquinoxalin-1-yl)pyrido[2,3-d]pyrimidin-7-one] | ≥ 2.5 | ≤ 0.25 | ≤ 0.25
